Reference: patent publication US20140363818A1, “EGFR and PAR2 Regulation of Intestinal Permeability” (UNIVERSITY OF MARYLAND, BALTIMORE, priority 2009, published 2014)
“Also recorded” adds a separate entry of the source.

How the values were obtained:
[1] = tested on: C57BL/6 WT murine small intestine segments; assay: Ex vivo intestinal permeability (TEER) in the microsnapwell system; format: cell-based, mouse; settings: for TEER change / intestinal permeability, dose-response experiment: C57BL/6 WT segments, zonulin 5-50 μg/well, trypsin-cleaved pre-HP2 50 μg/well
Experimental: The effect of zonulin/pre-HP2 on ex vivo intestinal permeability was monitored in the microsnapwell system as described (3). Briefly, segments of small intestine from C57BL/6 WT mice were mounted onto the microsnapwell system, and their luminal side was exposed for 30 min to medium alone or to the medium containing increasing concentrations of the purified recombinant zonulin. TEER was measured at time 0 and at 30-min time intervals for a period of 2 h using a planar electrode (Endohm SNAP electrode attached to an Evom-G WPI analyzer; World Precision Instruments) and expressed in Ω/cm^2 after normalization. […] In another set of experiments, zonulin was tested both in C57BL/6 WT and PAR2−/− mice. […]
Recombinant pre-HP2 (from now on defined as zonulin) was applied to WT C57BL/6 murine small intestine segments mounted in microsnapwells.

[2] = biological target: T1, PAR2 (Mus musculus, UniProt P55086); settings: demonstrated in WT, but not PAR2−/− mice; cited from earlier work
T1 sequence (P55086 26-399): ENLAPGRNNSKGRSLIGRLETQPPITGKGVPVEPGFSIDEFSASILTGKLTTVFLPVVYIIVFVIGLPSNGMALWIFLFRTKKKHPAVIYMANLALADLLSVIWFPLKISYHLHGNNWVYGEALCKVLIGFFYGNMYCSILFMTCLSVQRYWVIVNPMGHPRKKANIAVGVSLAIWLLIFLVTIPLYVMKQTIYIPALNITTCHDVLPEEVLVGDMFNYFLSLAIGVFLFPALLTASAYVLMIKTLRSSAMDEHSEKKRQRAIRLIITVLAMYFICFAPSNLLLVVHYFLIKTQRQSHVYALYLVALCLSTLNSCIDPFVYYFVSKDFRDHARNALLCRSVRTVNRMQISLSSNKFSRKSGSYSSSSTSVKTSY

[3] = tested on: 129/SvEv WT mice; assay: In vivo gastrointestinal permeability with sugar probes (lactulose/mannitol, sucrose); set-up: species or system mouse; settings: for small intestinal permeability (lacman ratio) vs BSA-treated controls / gastroduodenal permeability (sucrose fractional excretion) vs BSA-treated controls: 170 mg/mouse [sic], gavage, challenge day vs 3 days before; for small intestinal permeability (lacman ratio) vs BSA-treated controls: FIG. 4A; for gastroduodenal permeability (sucrose fractional excretion) vs BSA-treated controls: FIG. 4B
Experimental: They were acclimatized to the experimental techniques for 3 wk, by fasting the animals for 3 h, gavaging the animals with a sugar probe, and placing them in metabolic cages twice each wk. On the day of protein challenge, the animals received either 170 micrograms of the purified single-chain zonulin in a 60 microliter solution or a similar amount of purified 2-chain cleaved HP2, together with the sugar gavage as described (4). […] Two days after the drug challenge day, mice were again placed in metabolic cages to measure their recovery from the treatment.
To establish whether zonulin might alter intestinal permeability in vivo, mice were gavaged with the single chain recombinant pre-HP2 protein (170 mg/mouse), and gastroduodenal and small intestinal permeability tested using specific sugar probes (sucrose and lactulose/mannitol, respectively) as described (14).

[4] = biological target: T2, EGFR (Homo sapiens, UniProt P00533); assay: EGFR phosphorylation in serum-starved Caco-2 cells (immunoprecipitation / Western blot); format: cell-based; settings: for EGFR phosphorylation compared with single chain zonulin: two-chain mature HP2 10 ml/ml as printed, Caco-2, FIG. 5D
T2 construct: serum-starved, high EGFR-expressing Caco-2 cells; endogenous in cells; host or cells: Caco-2
Experimental: PAR2 expression in Caco-2 cells was silenced using 2 different PAR2 siRNAs [HSS103471 and HSS103473 (50 nM each); Invitrogen].
The effect of zonulin on ex vivo and in vivo intestinal permeability was performed as described (8, 14) and reported above. To determine whether zonulin can activate EGFR, increasing concentrations of either zonulin or two-chain mature HP2 were added for increasing exposure times to serum-starved, high EGFR-expressing Caco-2 cells. The cells were lysed and processed for WB with anti-phospho EGFR (Y1068) Ab (Cell Signaling Technol. Inc.) as reported (40).
To determine whether zonulin can activate EGFR, increasing concentrations of baculovirus-derived, recombinant zonulin were added to Caco-2 intestinal epithelial cells. The cells were lysed, immunoprecipitated with anti-EGFR Ab, and processed for phosphotyrosine immunoblotting (PY-Plus).

COc1cc2ncnc(Nc3cccc(Cl)c3)c2cc1OC [AG1478, reference compound]
effect on zonulin-induced drop in TEER ([1]; 5 μM AG1478 with zonulin 10 μg/well, C57BL/6 WT, 90 min, FIG. 5C): abolished TEER reduction; also recorded: prevented

FCIGRL [AT1002]
changes in TEER [2]: PAR2-dependent changes in TEER

zonulin: Recombinant human haptoglobin-2 precursor (pre-HP2), uncleaved single chain, expressed in a baculovirus system
small intestinal permeability (lacman ratio) vs BSA-treated controls [3]: increases
small intestinal permeability (lacman ratio) vs BSA-treated controls ([3]; listed as Zonulin/preHP2): increased
gastroduodenal permeability (sucrose fractional excretion) vs BSA-treated controls [3]: increases
gastroduodenal permeability (sucrose fractional excretion) vs BSA-treated controls ([3]; listed as Zonulin/preHP2): increased
time for small intestinal permeability to return to pre-challenge values ([3]; after zonulin challenge, FIG. 4C): ≤ 48 h
time for gastroduodenal permeability to return to pre-challenge values ([3]; after zonulin challenge, FIG. 4D): ≤ 48 h
concentration at which tyrosine phosphorylation of EGFR increased ([4]; Caco-2 cells, anti-EGFR IP, PY-Plus blot, FIG. 5A): ≥ 3 mg/mL
concentration at which the dose-dependent increase in EGFR phosphorylation reached a plateau ([4]; serum-starved Caco-2 cells, FIG. 5A): 3 ml/ml
EGFR phosphorylation vs media ([4]; zonulin 10 ml/well as printed, alone, serum-starved Caco-2, FIG. 5B): increase in EGFR phosphorylation
TEER change / intestinal permeability, dose-response experiment ([1]; FIG. 3): increased intestinal permeability in C57BL/6 WT mice in a dose-and time-dependent manner
TEER change in wild-type intestinal segments ([1]; C57BL/6 WT, 10 μg/well, baseline vs 90 min, FIG. 5C, 6B): decreased TEER; also recorded: significant drop in TEER
TEER change in PAR2−/− intestinal segments ([1]; PAR2−/− mice, 10 mg zonulin as printed, time 0 vs 90 min, FIG. 6B): failed to reduce TEER; also recorded: did not increase intestinal permeability
concentration at which TEER decreased (increased permeability) ([1]; added to mucosal (luminal) aspect of WT C57BL/6 small intestine segments, FIG. 3): ≥ 40 µg/mL
concentration inducing significant drop in TEER ([1]; luminal side, C57BL/6 WT, starting at 60 min post-exposure, tested 5, 10, 25, 50 μg/well, FIG. 3): 10 μg/well

B1: two-chain HP2: Cleaved two-chain mature HP2 (α2 and β chains) obtained by trypsin digestion of single chain zonulin (protein)
chain 1: VDSGNDVTDIADDGCPKPPEIAHGYVEHSVRYQCKNYYKLRTEGDGVYTLNDKKQWINKAVGDKLPECEADDGCPKPPEIAHGYVEHSVRYQCKNYYKLRTEGDGVYTLNNEKQWINKAVGDKLPECEAVCGKPKNPANPVQR
chain 2: ILGGHLDAKGSFPWQAKMVSHHNLTTGATLINEQWLLTTAKNLFLNHSENATAKDIAPTLTLYVGKKQLVEIEKVVLHPNYSQVDIGLIKLKQKVSVNERVMPICLPSKDYAEVGRVGYVSGWGRNANFKFTDHLKYVMLPVADQDQCIRHYEGSTVPEKKTPKSPVGVQPILNEHTFCAGMSKYQEDTCYGDAGSAFAVHDLEEDTWYATGILSFDKSCAVAEYGVYVKVTSIQDWVQKTIAENHHHHHH
small intestinal permeability (lacman ratio) vs BSA-treated controls [3]: failed to alter; also recorded: no changes
gastroduodenal permeability (sucrose fractional excretion) vs BSA-treated controls [3]: failed to alter; also recorded: no changes
EGFR phosphorylation compared with single chain zonulin [4]: dramatically reduced
EGFR phosphorylation compared with single chain zonulin ([4]; listed as two-chain mature HP2): significantly reduced
TEER change / intestinal permeability, dose-response experiment ([1]; FIG. 3): no consistent TEER changes
